Measurements from ChEMBL document CHEMBL5653631, “A Potent and Selective ULK1 Inhibitor Suppresses Autophagy and Sensitizes Cancer Cells to Nutrient Stress” (iScience, 2018).
Values belong to the compound of their own block, whether it stands above or below them.

Columns and labels:
[1] = molecular target: T1, Mitogen-activated protein kinase kinase kinase 2 (Homo sapiens) (UniProt Q9Y2U5); experiment: Inhibition of human recombinant MAP3K2 at 500 nM related to control ULK1
T1 sequence (whole entry): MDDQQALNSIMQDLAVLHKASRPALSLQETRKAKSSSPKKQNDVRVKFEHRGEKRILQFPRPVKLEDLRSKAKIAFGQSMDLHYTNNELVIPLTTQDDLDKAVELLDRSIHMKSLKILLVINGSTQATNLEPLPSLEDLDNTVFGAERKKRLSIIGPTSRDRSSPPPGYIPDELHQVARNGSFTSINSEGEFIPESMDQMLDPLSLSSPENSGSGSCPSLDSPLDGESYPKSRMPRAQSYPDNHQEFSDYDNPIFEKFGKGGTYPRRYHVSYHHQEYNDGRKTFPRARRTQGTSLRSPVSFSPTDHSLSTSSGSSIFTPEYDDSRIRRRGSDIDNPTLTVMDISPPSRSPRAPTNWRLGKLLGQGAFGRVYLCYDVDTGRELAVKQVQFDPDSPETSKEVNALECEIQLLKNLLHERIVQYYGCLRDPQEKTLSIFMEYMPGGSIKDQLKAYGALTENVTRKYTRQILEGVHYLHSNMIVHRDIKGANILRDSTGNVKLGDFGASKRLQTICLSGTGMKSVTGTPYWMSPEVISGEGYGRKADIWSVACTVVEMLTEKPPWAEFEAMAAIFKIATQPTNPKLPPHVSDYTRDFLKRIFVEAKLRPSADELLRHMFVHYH

[2] = molecular target: T2, Eukaryotic translation initiation factor 2-alpha kinase 3 (Homo sapiens) (UniProt Q9NZJ5); experiment: Inhibition of human recombinant PEK at 40 nM in presence of ATP by radiometric assay relative to control
T2 sequence (whole entry): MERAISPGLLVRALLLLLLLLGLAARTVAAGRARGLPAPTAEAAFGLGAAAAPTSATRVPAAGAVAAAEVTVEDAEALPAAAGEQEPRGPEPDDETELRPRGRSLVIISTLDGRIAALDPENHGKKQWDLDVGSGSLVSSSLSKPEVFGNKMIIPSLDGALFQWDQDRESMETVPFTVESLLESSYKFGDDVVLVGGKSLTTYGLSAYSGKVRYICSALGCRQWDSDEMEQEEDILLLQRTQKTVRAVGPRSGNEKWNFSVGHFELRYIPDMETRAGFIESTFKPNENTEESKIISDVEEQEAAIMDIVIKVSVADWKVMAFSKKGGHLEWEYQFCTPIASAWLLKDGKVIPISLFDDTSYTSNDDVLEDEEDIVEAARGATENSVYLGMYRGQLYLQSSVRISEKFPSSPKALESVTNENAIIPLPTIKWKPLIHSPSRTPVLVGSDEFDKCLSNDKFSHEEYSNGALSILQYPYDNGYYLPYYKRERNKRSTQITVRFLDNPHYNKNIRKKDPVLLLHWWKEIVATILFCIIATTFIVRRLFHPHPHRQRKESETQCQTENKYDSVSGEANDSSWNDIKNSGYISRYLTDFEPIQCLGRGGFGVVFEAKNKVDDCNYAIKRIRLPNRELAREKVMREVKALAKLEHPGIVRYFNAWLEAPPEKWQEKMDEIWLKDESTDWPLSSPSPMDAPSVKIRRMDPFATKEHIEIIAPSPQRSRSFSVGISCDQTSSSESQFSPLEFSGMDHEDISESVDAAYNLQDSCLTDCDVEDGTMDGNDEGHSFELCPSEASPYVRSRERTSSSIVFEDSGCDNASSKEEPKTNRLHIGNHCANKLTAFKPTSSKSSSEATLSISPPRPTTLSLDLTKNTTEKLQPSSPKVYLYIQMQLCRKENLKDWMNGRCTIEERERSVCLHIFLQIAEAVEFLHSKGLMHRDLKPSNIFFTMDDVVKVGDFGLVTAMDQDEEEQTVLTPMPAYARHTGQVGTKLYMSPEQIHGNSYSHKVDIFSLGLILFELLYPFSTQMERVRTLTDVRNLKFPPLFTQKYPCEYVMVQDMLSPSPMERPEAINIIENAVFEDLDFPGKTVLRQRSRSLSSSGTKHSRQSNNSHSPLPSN

[3] = molecular target: T3, Mitogen-activated protein kinase 12 (Homo sapiens) (UniProt P53778); experiment: Inhibition of human recombinant p38gamma at 40 nM related to control ULK1
T3 sequence (whole entry): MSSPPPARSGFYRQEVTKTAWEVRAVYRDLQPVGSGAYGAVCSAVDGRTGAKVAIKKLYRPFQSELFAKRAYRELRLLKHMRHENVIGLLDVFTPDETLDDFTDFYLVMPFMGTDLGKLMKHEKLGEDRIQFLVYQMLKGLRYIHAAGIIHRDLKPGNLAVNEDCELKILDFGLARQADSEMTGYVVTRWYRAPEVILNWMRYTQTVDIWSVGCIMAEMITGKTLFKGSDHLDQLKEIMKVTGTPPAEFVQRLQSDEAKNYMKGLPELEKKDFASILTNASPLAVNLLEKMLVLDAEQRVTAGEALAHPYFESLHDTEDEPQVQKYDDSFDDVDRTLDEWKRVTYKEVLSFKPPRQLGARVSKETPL

[4] = molecular target: Vascular endothelial growth factor receptor 3 (Homo sapiens) (UniProt P35916); experiment: Inhibition of human recombinant FLT4 at 40 nM in presence of ATP by radiometric assay relative to control
[5] = molecular target: Tau-tubulin kinase 2 (Homo sapiens) (UniProt Q6IQ55); experiment: Inhibition of human recombinant TTBK2 at 40 nM related to control ULK1
[6] = molecular target: cAMP-dependent protein kinase catalytic subunit alpha (Homo sapiens) (UniProt P17612); experiment: Inhibition of human recombinant PKACalpha at 40 nM related to control ULK1
[7] = molecular target: Fibroblast growth factor receptor 3 (Homo sapiens) (UniProt P22607); experiment: Inhibition of human recombinant FGFR3 at 40 nM in presence of ATP by radiometric assay relative to control
[8] = molecular target: SRSF protein kinase 3 (Homo sapiens) (UniProt Q9UPE1); experiment: Inhibition of human recombinant MSSK1 at 15 nM in presence of ATP by radiometric assay relative to control
[9] = molecular target: Serine/threonine-protein kinase PAK 5 (Homo sapiens) (UniProt Q9P286); experiment: Inhibition of human recombinant PAK5 at 15 nM related to control ULK1
[10] = molecular target: Dual specificity protein kinase CLK2 (Homo sapiens) (UniProt P49760); experiment: Inhibition of human recombinant CLK2 at 15 nM related to control ULK1
[11] = molecular target: Protein kinase C alpha type (Homo sapiens) (UniProt P17252); experiment: Inhibition of human recombinant PKCa at 15 nM in presence of ATP by radiometric assay relative to control
[12] = molecular target: Serine/threonine-protein kinase N2 (Homo sapiens) (UniProt Q16513); experiment: Inhibition of human recombinant PKN2 at 15 nM in presence of ATP by radiometric assay relative to control
Sequence of Serine/threonine-protein kinase N2 (Homo sapiens) (Q16513 whole entry, looked up): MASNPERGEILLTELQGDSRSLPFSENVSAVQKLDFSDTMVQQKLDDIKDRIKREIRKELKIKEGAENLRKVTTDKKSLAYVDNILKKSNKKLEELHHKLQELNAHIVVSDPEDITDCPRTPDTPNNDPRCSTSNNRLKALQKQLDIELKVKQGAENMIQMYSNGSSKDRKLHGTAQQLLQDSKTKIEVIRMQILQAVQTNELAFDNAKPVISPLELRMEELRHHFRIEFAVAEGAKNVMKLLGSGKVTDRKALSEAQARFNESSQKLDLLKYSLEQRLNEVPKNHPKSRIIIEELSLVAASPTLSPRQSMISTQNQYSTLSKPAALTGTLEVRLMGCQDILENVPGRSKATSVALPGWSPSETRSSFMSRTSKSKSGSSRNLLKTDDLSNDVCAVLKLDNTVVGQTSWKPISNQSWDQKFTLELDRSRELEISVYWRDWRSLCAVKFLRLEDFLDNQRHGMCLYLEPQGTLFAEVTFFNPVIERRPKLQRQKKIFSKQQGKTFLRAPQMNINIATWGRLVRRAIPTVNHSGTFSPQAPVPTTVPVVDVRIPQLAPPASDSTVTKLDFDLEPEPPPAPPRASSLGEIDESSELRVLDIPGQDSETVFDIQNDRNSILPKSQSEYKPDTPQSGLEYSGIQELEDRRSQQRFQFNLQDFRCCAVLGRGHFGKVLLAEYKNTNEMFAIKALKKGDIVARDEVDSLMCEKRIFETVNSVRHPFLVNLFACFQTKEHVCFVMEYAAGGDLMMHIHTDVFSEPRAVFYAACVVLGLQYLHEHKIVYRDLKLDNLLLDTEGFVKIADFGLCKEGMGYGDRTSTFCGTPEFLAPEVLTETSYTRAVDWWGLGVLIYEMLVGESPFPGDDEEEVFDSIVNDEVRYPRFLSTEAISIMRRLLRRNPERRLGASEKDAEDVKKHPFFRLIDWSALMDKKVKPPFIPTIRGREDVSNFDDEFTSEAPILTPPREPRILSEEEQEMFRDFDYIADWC

Sequence of SRSF protein kinase 3 (Homo sapiens) (Q9UPE1 whole entry): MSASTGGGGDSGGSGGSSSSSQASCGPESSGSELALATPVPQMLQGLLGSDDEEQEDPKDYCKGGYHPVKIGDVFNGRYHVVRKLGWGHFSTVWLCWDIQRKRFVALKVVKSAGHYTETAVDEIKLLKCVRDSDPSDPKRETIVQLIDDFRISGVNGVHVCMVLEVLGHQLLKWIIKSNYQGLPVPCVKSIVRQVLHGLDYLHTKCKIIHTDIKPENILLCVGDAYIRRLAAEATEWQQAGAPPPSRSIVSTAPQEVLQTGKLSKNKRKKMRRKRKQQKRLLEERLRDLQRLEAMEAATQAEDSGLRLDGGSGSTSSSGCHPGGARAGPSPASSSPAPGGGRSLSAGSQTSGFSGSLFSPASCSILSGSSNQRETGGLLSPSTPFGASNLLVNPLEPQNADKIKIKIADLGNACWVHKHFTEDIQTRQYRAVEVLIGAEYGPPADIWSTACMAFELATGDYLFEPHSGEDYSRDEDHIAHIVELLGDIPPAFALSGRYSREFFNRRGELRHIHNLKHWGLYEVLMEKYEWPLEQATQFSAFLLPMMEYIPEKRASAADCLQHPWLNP
Sequence of Fibroblast growth factor receptor 3 (Homo sapiens) (P22607 23-806 limits assumed): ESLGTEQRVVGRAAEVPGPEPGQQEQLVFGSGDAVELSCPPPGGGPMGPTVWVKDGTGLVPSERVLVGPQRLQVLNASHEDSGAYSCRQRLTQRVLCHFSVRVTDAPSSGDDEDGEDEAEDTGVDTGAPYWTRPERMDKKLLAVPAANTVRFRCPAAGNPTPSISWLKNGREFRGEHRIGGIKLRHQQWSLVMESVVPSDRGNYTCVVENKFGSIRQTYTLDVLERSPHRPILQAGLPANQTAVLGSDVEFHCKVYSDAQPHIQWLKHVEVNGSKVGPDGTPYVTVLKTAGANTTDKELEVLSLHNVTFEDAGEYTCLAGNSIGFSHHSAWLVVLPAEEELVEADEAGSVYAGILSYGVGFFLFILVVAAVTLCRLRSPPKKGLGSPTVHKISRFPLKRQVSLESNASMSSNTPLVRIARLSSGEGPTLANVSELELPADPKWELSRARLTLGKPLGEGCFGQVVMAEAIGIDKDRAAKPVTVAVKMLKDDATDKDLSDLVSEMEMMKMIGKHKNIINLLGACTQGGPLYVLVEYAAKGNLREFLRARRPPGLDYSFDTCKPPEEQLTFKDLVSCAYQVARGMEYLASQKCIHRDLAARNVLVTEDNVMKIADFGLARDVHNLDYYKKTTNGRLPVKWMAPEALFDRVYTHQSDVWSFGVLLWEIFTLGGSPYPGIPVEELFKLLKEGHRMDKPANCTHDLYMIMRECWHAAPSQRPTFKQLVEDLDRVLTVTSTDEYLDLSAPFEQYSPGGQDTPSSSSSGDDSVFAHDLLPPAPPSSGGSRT
Sequence of Tau-tubulin kinase 2 (Homo sapiens) (Q6IQ55 whole entry): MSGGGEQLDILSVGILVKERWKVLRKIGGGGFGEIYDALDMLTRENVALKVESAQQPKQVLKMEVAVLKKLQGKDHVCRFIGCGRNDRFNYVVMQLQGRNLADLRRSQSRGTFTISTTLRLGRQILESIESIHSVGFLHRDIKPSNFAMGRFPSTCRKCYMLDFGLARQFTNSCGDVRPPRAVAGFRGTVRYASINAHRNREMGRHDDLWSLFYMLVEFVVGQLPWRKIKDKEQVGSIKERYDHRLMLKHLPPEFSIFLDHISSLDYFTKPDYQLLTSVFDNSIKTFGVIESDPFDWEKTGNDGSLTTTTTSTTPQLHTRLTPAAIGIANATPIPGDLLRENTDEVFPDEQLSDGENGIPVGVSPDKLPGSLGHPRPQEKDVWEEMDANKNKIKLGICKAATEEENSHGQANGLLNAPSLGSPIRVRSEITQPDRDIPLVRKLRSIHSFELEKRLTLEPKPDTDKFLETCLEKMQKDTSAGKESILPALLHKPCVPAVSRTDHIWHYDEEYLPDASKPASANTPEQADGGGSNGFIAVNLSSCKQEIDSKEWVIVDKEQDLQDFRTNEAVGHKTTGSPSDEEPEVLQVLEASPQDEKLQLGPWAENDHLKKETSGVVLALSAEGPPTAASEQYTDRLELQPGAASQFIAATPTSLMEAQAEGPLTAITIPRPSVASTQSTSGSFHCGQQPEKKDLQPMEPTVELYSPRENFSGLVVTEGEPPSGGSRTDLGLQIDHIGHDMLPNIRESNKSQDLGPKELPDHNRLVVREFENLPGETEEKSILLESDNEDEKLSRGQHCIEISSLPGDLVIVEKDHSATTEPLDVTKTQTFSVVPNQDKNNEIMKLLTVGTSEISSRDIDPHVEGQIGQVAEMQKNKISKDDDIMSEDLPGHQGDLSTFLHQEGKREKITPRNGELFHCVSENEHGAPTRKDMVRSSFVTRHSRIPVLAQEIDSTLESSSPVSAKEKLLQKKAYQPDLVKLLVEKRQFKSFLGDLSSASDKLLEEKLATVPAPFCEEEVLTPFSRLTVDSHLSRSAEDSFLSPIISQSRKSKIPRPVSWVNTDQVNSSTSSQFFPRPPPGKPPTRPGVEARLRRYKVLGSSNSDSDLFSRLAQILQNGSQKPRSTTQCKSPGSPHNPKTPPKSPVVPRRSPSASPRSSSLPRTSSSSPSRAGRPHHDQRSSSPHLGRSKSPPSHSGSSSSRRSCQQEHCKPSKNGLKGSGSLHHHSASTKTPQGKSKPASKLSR
Sequence of Serine/threonine-protein kinase PAK 5 (Homo sapiens) (Q9P286 whole entry, looked up): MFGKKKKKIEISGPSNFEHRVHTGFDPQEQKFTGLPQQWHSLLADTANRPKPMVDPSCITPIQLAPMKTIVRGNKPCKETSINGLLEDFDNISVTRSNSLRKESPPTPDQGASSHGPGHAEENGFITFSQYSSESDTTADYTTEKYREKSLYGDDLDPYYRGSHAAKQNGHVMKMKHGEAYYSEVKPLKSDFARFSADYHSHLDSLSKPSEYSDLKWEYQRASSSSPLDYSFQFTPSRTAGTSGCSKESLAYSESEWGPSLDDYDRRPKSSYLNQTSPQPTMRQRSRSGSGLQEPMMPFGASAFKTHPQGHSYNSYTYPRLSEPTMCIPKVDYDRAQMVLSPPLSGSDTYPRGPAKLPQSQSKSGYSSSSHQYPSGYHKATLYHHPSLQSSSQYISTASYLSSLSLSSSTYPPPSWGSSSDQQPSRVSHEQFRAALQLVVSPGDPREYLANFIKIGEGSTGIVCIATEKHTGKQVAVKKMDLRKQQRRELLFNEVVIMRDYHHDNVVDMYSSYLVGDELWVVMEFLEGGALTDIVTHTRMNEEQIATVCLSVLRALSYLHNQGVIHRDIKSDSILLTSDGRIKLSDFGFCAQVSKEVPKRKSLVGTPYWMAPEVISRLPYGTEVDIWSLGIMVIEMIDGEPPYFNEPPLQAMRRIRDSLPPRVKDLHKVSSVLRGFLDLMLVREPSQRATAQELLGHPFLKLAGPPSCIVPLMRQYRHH

- fold change (FC) [1]: 0.04
SMILES: CNC(=O)c1ccccc1Oc1nc(Nc2cc(OC)c(OC)c(OC)c2)ncc1Br

- inhibition [2]: 0%
- fold change (FC) [3]: 0
- inhibition [4]: 19%
- fold change (FC) [5]: 0
- fold change (FC) [6]: 0
- inhibition [7]: 0%
SMILES: O=C(N[C@@H](C1CC1)C(F)(F)F)c1cc(-c2cnn3cc(-c4ccc(F)cc4)cnc23)cs1

- inhibition [8]: 0%
- fold change (FC) [9]: 0
- fold change (FC) [10]: 0.33
- inhibition [11]: 7%
- inhibition [12]: 0%
SMILES: CC(C)[C@H](NC(=O)c1cc(-c2cnn3cc(-c4ccc(OCCN5CCCCC5)cc4)cnc23)cs1)C(F)(F)F
